Patent US10577336B2, “Morpholine and 1,4-oxazepane amides as somatostatin receptor subtype 4 (SSTR4) agonists” (Boehringer Ingelheim International GmbH, priority 2014, dated 2020)

What was measured:
[1] = molecular target: human Somatostatin 4 receptor (hSSTR4) (Homo sapiens (Human), UniProt P31391); experiment: cAMP assay with human somatostatin 4 receptor (inhibition of forskolin-stimulated cAMP, hSSTR4 expressing H4 cells); format: cell-based; conditions: read-out: SSTR4 agonism EC50
in vitro = conditions: human, microsomes, pH 7.6
[2] = Metabolic stability in pooled human liver microsomes (half-life); conditions: 37° C., 1 μM test compound

Sequence of human Somatostatin 4 receptor (hSSTR4) (P31391 whole entry): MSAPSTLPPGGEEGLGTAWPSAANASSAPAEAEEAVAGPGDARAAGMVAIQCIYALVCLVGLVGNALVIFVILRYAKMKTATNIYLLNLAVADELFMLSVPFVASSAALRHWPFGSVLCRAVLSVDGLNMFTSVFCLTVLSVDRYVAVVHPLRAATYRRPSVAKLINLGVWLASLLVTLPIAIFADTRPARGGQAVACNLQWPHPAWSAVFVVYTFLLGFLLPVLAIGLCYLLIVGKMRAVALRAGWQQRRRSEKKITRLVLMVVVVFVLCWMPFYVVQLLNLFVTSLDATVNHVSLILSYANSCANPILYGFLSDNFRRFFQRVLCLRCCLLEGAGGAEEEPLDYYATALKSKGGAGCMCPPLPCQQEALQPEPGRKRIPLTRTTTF

EC50 [1] [nM]	half-life at 1 μM (in vitro) [min]	Half-life t1/2 [2] [min]	Structure (SMILES)
10			Cn1nc(C(C)(C)NC(=O)C2CNCCOC2)c2cccc(F)c21 (racemic) [Example 76]
258			CC(C)(NC(=O)[C@H]1CNCCO1)c1ccnc2ccccc12 [Example 8]
43.4			COc1cccn2c(C(C)(C)NC(=O)[C@@H]3CNCCO3)ncc12 [Example 99]
17.3			CC(C)(NC(=O)C1CNCCOC1)c1noc2c(Cl)cccc12 (racemic) [Example 72]
8.4	> 130		CC(C)(NC(=O)C1CNCCOC1)c1noc2c(Cl)cccc12 (single isomer, unassigned) [Example 73]
		100	Cn1nc(C(C)(C)NC(=O)[C@@H]2CNCCO2)c2cccc(Cl)c21 [Example 79]
85.3			Cc1nc(C(C)(C)NC(=O)[C@@H]2CNCCO2)n2cccc(F)c12 [Example 98]
20.4			Cc1cccn2c(C3(NC(=O)C4CNCCOC4)CC3)ncc12 (stereo not shown) [Example 5]
		>130	Cc1cccc2c(C(C)(C)NC(=O)[C@@H]3CNCCO3)nn(C)c12 [Example 83]
